In patent US7045343B2, “Sterilization indicator test packs” (3M Innovative Properties Company, priority 1998, dated 2006):

Columns and labels:
[1] = system: enzyme associated with Bacillus stearothermophilus spores; assay: Rapid enzyme fluorescence readout of dual rapid readout indicators after prevacuum steam sterilization; format: biochemical; settings: 4-pulse prevacuum steam 121° C.
Experimental: (§1) The indicators prepared for the Examples were dual rapid readout indicators that provided both a rapid, enzyme-based efficacy test and a confirmatory spore outgrowth test. Spores coated on the carrier strip 16 served as the source of active enzyme whose activity was measured by the rapid enzyme test. These same spores were then incubated in the spore outgrowth portion of the test.
(§2) Bacillus stearothermophilus, commercially available as ATCC 7953 from American Type Culture Collection, Rockville, Md., was grown overnight (16 hours) at 58° C. in tryptic soy broth. This culture was used to inoculate the surface of agar plates consisting of 8 g/l nutrient broth, 4 g/l yeast extract, 0.1 g/l manganese chloride and 20 g/l agar at pH 7.2. Plates were incubated at 58° C. for 72 hours. Spores were scraped from the plates and suspended in sterile distilled water. The spores were separated from the vegetative debris by centrifuging the suspension at 7000 rpm and 4° C. for 20 minutes. The supernatant was poured off and the spores were resuspended in sterile distilled water. The cleaning procedure was repeated several times. After the final wash, the spores were suspended in sterile distilled water, at a concentration of approximately 1×10^8 spores per milliliter.
(§3) The spores were then treated with the chemicals identified in Tables 1–5. All chemicals tested were obtained from commercial sources. The spores were centrifuged at 6000 rpm for 10 minutes. The supernatant and coating chemical mixtures were heated at 60–80° C. for several minutes and vortexed to get the material into solution. The spores were then mixed into the sterilant-resistant chemical solution. The sterilant-resistant chemical solution was applied to 5×25 mm, 591 A paper strips (Schleicher & Schuell, Inc., Keene, N.H.) by pipetting 10–15 microliters to each strip for a final population of about 1×10^6 spores per strip. The strips were dried 16 hours at 37° C.
(§4) The treated spore strips were placed on the bottom of the outer container 12 of the indicator 10 and a barrier was inserted between the spore strip 16 and the inner container 18, which contained enzyme substrate. A […] ( 11/16 inch) disc of polypropylene blown microfiber material, with a weight of 200 g/m^2, commercially available as “THINSULATE™ 200-B brand Thermal Insulation” from 3M Company, St. Paul, Minn., was used as the barrier. The inner container 18 contained 0.67 ml nutrient medium, consisting of 17 g of a bacteriological peptone and a 0.17 g/l of L-alanine, as well as 0.1 g 4-methylumbelliferyl-alpha-D-glucoside, commercially available from Sigma Chemical Company, St. Louis, Mo., dissolved in 200 microliters of N,N-dimethylformamide, and 0.03 g bromocresol purple pH indicator dye, per liter of water. The pH of the enzyme substrate and nutrient medium solution was adjusted to 7.6 with 0.1N sodium hydroxide.
(§5) Sterilization indicators were made as described above with each of the chemicals and concentrations described in Table 1. Control indicators were made using untreated spores. The indicators were placed in metal instrument trays and exposed at 121° C. in a Getinge Steam Sterilizer (Getinge International, Inc., 1100 Towbin Ave., Lakewood, N.J.) using a 4-pulse prevacuum cycle at 121° C. with a vacuum level of 0.075–0.085 bar and a steam pulse to 1.00 bar for each pulse. Indicators were exposed in the sterilizer for between 7 and 13 minutes. This cycle is depicted in the time-pressure diagram in FIG. 5. After exposure the inner containers containing the enzyme substrate and nutrient medium were crushed and the indicators were incubated at 60° C. The indicators were examined for fluorescence using a 3M™ ATTEST™ Model 190 Rapid Autoreader, commercially available from 3M Company, St. Paul, Minn. Additionally, spore growth, as indicated by a color change from purple to yellow, was determined visually after 168 hours of incubation at 60° C. […]

[2] = system: Bacillus stearothermophilus spores; assay: Spore outgrowth (color change) of indicators after prevacuum steam sterilization; format: cell-based; settings: 4-pulse prevacuum steam 121° C.
Experimental: as §1, §2, §3, §4, §5

[3] = Example 1, 5 mg/ml coating, 7–13 min
[4] = Example 1, 10 mg/ml coating, 7–13 min
[5] = Example 1, 20 mg/ml coating, 7–13 min
[6] = Example 1, 40 mg/ml coating, 7–13 min
[7] = Example 5, 50 mg/ml coating, 7–13 min
[8] = Example 5, 100 mg/ml coating, 7–13 min
[9] = Example 4, 50 mg/ml coating, 7–18 min
[10] = Example 4, 100 mg/ml coating, 7–18 min

Tetraglyceryl Monostearate
FLUORESCENCE - PERCENT POSITIVE 1 HR [1, 3]: 0% | FLUORESCENCE - PERCENT POSITIVE 2 HR [1, 3]: 43.2% | FLUORESCENCE - PERCENT POSITIVE 3 HR [1, 3]: 67.6% | FLUORESCENCE - PERCENT POSITIVE 4 HR [1, 3]: 83.8% | FLUORESCENCE - PERCENT POSITIVE 5 HR [1, 3]: 94.6% | FLUORESCENCE - PERCENT POSITIVE 6 HR [1, 3]: 97.3% | FLUORESCENCE - PERCENT POSITIVE 1 HR [1, 4]: 0% | FLUORESCENCE - PERCENT POSITIVE 2 HR [1, 4]: 63.0% | FLUORESCENCE - PERCENT POSITIVE 3 HR [1, 4]: 81.5% | FLUORESCENCE - PERCENT POSITIVE 4 HR [1, 4]: 94.4% | FLUORESCENCE - PERCENT POSITIVE 5 HR [1, 4]: 96.3% | FLUORESCENCE - PERCENT POSITIVE 6 HR [1, 4]: 98.1% | FLUORESCENCE - PERCENT POSITIVE 1 HR [1, 5]: 0% | FLUORESCENCE - PERCENT POSITIVE 2 HR [1, 5]: 74.3% | FLUORESCENCE - PERCENT POSITIVE 3 HR [1, 5]: 92.9% | FLUORESCENCE - PERCENT POSITIVE 4 HR [1, 5]: 100.0% | FLUORESCENCE - PERCENT POSITIVE 5 HR [1, 5]: 100.0% | FLUORESCENCE - PERCENT POSITIVE 6 HR [1, 5]: 100.0% | FLUORESCENCE - PERCENT POSITIVE 1 HR [1, 6]: 0% | FLUORESCENCE - PERCENT POSITIVE 2 HR [1, 6]: 94.7% | FLUORESCENCE - PERCENT POSITIVE 3 HR [1, 6]: 100.0% | FLUORESCENCE - PERCENT POSITIVE 4 HR [1, 6]: 100.0% | FLUORESCENCE - PERCENT POSITIVE 5 HR [1, 6]: 100.0% | FLUORESCENCE - PERCENT POSITIVE 6 HR [1, 6]: 100.0% | NO. GROWTH POSITIVE 168 HR [2, 3]: 37 | NO. GROWTH POSITIVE 168 HR [2, 4]: 54 | NO. GROWTH POSITIVE 168 HR [2, 5]: 70 | NO. GROWTH POSITIVE 168 HR [2, 6]: 19

polyoxyethylene (5) glyceryl monostearate [POE (5) Glyceryl Monostearate]
accuracy of sterilization indicators compared to indicators made with untreated spores [1]: improved | FLUORESCENCE - PERCENT POSITIVE 1 HR [1, 7]: 0% | FLUORESCENCE - PERCENT POSITIVE 2 HR [1, 7]: 100.0% | FLUORESCENCE - PERCENT POSITIVE 3 HR [1, 7]: 100.0% | FLUORESCENCE - PERCENT POSITIVE 4 HR [1, 7]: 100.0% | FLUORESCENCE - PERCENT POSITIVE 1 HR [1, 8]: 0% | FLUORESCENCE - PERCENT POSITIVE 2 HR [1, 8]: 100% | FLUORESCENCE - PERCENT POSITIVE 3 HR [1, 8]: 100% | FLUORESCENCE - PERCENT POSITIVE 4 HR [1, 8]: 100% | NO. GROWTH POSITIVE 168 HR [2, 7]: 15 | NO. GROWTH POSITIVE 168 HR [2, 8]: 5

Decaglyceryl Monolaurate
accuracy of sterilization indicators compared to indicators made with untreated spores [1]: improved | FLUORESCENCE - PERCENT POSITIVE 1 HR [1, 9]: 0% | FLUORESCENCE - PERCENT POSITIVE 2 HR [1, 9]: 27.3% | FLUORESCENCE - PERCENT POSITIVE 3 HR [1, 9]: 72.7% | FLUORESCENCE - PERCENT POSITIVE 4 HR [1, 9]: 72.7% | FLUORESCENCE - PERCENT POSITIVE 1 HR [1, 10]: 87% | FLUORESCENCE - PERCENT POSITIVE 2 HR [1, 10]: 100.0% | FLUORESCENCE - PERCENT POSITIVE 3 HR [1, 10]: 100.0% | FLUORESCENCE - PERCENT POSITIVE 4 HR [1, 10]: 100.0% | NO. GROWTH POSITIVE 168 HR [2, 9]: 11 | NO. GROWTH POSITIVE 168 HR [2, 10]: 23

Decaglyceryl Monoisostearate
accuracy of sterilization indicators compared to indicators made with untreated spores [1]: improved | FLUORESCENCE - PERCENT POSITIVE 1 HR [1, 7]: 33.3% | FLUORESCENCE - PERCENT POSITIVE 2 HR [1, 7]: 77.8% | FLUORESCENCE - PERCENT POSITIVE 3 HR [1, 7]: 88.9% | FLUORESCENCE - PERCENT POSITIVE 4 HR [1, 7]: 88.9% | FLUORESCENCE - PERCENT POSITIVE 1 HR [1, 8]: 37.5% | FLUORESCENCE - PERCENT POSITIVE 2 HR [1, 8]: 100% | FLUORESCENCE - PERCENT POSITIVE 3 HR [1, 8]: 100% | FLUORESCENCE - PERCENT POSITIVE 4 HR [1, 8]: 100% | NO. GROWTH POSITIVE 168 HR [2, 7]: 9 | NO. GROWTH POSITIVE 168 HR [2, 8]: 8

Hexaglyceryl Monostearate
FLUORESCENCE - PERCENT POSITIVE 1 HR [1, 3]: 0% | FLUORESCENCE - PERCENT POSITIVE 2 HR [1, 3]: 32.0% | FLUORESCENCE - PERCENT POSITIVE 3 HR [1, 3]: 78.0% | FLUORESCENCE - PERCENT POSITIVE 4 HR [1, 3]: 84.0% | FLUORESCENCE - PERCENT POSITIVE 5 HR [1, 3]: 90.0% | FLUORESCENCE - PERCENT POSITIVE 6 HR [1, 3]: 94.0% | FLUORESCENCE - PERCENT POSITIVE 1 HR [1, 4]: 0% | FLUORESCENCE - PERCENT POSITIVE 2 HR [1, 4]: 31.8% | FLUORESCENCE - PERCENT POSITIVE 3 HR [1, 4]: 63.6% | FLUORESCENCE - PERCENT POSITIVE 4 HR [1, 4]: 79.5% | FLUORESCENCE - PERCENT POSITIVE 5 HR [1, 4]: 84.1% | FLUORESCENCE - PERCENT POSITIVE 6 HR [1, 4]: 86.4% | FLUORESCENCE - PERCENT POSITIVE 1 HR [1, 5]: 0% | FLUORESCENCE - PERCENT POSITIVE 2 HR [1, 5]: 61.4% | FLUORESCENCE - PERCENT POSITIVE 3 HR [1, 5]: 86.4% | FLUORESCENCE - PERCENT POSITIVE 4 HR [1, 5]: 95.5% | FLUORESCENCE - PERCENT POSITIVE 5 HR [1, 5]: 97.7% | FLUORESCENCE - PERCENT POSITIVE 6 HR [1, 5]: 97.7% | NO. GROWTH POSITIVE 168 HR [2, 3]: 50 | NO. GROWTH POSITIVE 168 HR [2, 4]: 44 | NO. GROWTH POSITIVE 168 HR [2, 5]: 44
